Test results published in PMC4710668, “Bioactivation of food genotoxicants 5-hydroxymethylfurfural and furfuryl alcohol by sulfotransferases from human, mouse and rat: a comparative study” (Archives of Toxicology, 2014).
Where “and” joins values, the source holds several entries; their conditions need not be identical. Equal entries are not always repeated. Marks after values point to notes of the source that are not given here.

Tests used:
Test in all cases: FFA sulfoconjugation assay (N6-MF-A formation with adenosine as scavenger)
Format in all cases: biochemical
[1] = biological target: T1, hSULT2A1 (Homo sapiens, UniProt Q06520)
T1 construct: made in house; host or cells: Salmonella typhimurium TA1538 (cytosolic fraction, not purified)
T1 sequence (Q06520 1-285): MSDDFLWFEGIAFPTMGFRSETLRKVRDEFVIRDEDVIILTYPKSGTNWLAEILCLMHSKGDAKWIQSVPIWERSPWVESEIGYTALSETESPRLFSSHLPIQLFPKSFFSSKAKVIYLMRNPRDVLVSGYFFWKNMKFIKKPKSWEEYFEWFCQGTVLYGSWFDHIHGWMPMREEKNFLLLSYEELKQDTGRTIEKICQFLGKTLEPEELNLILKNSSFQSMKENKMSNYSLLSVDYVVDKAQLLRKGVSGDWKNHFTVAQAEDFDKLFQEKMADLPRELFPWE
Outline: (§1)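 Cytosols from S. typhimurium TA1538 expressing individual SULTs are incubated at 37 °C for 20 min with FFA plus 10 mM adenosine. Reactions are quenched in methanol containing [15N5]N6-MF-A, and supernatants are analysed by UPLC-MS/MS. Spontaneous, SULT-independent adduct formation is corrected using SULT-deficient cytosols.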

[2] = biological target: T2, mSult2b1b (Mus musculus, UniProt O35400)
T2 construct: made in house; host or cells: Salmonella typhimurium TA1538 (cytosolic fraction, enzyme not purified)
T2 sequence (O35400 1-338): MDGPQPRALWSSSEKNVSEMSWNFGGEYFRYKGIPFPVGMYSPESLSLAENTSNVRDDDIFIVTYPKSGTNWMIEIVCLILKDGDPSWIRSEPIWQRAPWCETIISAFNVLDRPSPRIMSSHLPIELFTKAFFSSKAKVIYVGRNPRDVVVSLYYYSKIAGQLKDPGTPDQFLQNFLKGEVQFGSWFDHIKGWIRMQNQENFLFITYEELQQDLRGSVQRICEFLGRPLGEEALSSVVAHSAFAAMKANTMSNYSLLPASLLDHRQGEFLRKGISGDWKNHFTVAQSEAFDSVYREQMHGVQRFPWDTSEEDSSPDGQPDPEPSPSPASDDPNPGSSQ
Outline: as §1

[3] = biological target: T3, rSult1b1 (Rattus norvegicus, UniProt P52847)
T3 construct: made in house; host or cells: Salmonella typhimurium TA1538 (cytosolic fraction, enzyme not purified)
Outline: as §1

[4] = biological target: T4, rSult1a1 (Rattus norvegicus, UniProt P17988); details: 1 mM FFA
T4 construct: made in house; host or cells: Salmonella typhimurium TA1538 (cytosolic fraction, enzyme not purified)
Outline: as §1

[5] = biological target: T5, hSULT1A2 (Homo sapiens, UniProt P50226)
T5 construct: made in house; host or cells: Salmonella typhimurium TA1538 (cytosolic fraction, not purified)
Outline: as §1

[6] = biological target: T6, hSULT1A1 (Homo sapiens, UniProt P50225)
T6 construct: made in house; host or cells: Salmonella typhimurium TA1538 (cytosolic fraction, not purified)
Outline: as §1

[7] = 1 mM FFA, corrected by actual SULT concentration in the cytosolic preparation

T6 sequence (P50225 whole entry): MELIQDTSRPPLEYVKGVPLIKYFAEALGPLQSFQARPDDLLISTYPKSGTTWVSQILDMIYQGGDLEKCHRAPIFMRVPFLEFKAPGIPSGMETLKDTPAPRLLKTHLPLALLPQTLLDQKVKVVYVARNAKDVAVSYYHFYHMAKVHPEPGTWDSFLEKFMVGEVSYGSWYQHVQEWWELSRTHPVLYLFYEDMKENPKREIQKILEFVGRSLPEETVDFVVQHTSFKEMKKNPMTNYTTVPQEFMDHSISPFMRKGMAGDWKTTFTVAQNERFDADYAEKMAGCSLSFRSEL
T4 sequence (P17988 whole entry): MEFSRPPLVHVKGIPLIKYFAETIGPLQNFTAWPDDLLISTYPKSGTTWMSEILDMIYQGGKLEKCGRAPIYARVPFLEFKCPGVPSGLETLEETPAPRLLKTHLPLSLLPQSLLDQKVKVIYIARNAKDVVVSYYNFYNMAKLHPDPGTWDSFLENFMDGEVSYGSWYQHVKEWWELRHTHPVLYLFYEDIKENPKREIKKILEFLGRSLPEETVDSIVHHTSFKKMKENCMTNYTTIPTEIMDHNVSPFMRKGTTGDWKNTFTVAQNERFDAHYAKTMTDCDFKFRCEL
T5 sequence (P50226 whole entry): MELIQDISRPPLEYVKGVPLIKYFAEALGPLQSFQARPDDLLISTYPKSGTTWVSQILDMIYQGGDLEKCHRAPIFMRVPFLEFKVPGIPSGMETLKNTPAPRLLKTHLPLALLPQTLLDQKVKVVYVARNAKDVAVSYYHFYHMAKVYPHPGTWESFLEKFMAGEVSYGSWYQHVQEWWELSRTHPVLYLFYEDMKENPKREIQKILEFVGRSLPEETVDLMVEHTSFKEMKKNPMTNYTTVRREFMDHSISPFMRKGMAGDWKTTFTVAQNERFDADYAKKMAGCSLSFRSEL
T3 sequence (P52847 whole entry): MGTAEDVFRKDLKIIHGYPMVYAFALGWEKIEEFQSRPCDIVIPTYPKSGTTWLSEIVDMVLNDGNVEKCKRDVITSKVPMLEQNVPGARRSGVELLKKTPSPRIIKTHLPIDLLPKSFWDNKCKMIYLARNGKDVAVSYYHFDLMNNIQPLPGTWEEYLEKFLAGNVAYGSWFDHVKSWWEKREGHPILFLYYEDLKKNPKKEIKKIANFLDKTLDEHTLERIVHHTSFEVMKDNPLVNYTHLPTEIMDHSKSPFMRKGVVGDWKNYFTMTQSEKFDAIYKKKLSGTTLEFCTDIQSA

Structure (SMILES): OCc1ccco1 [FFA, furfuryl alcohol]
- Rate of N6-MF-A formation ([1]; 0.1 mM FFA): <18 fmol N ^6-MF-A/mg/min
- Rate of N6-MF-A formation ([1]; 1 mM FFA): 37.0 ± 0.6 fmol N ^6-MF-A/mg/min
- Rate of N6-MF-A formation (corr.) ([1]; 1 mM FFA, corrected by SULT concentration reported in Meinl et al. [2006]): 2,110 ± 40^b fmol N ^6-MF-A/mg/min
- Rate of N6-MF-A formation ([1]; 10 mM FFA): 386 ± 6 fmol N ^6-MF-A/mg/min
- Rate of N6-MF-A formation ([2]; 0.1 mM FFA): <18 fmol N ^6-MF-A/mg/min
- Rate of N6-MF-A formation ([2]; 1 mM FFA): <20 fmol N ^6-MF-A/mg/min
- Rate of N6-MF-A formation ([2]; 10 mM FFA): <44 fmol N ^6-MF-A/mg/min
- Rate of N6-MF-A formation ([3]; 0.1 mM FFA): <18 fmol N ^6-MF-A/mg/min
- Rate of N6-MF-A formation ([3]; 1 mM FFA): 34.3 ± 1.0 fmol N ^6-MF-A/mg/min
- Rate of N6-MF-A formation ([3]; 10 mM FFA): 314 ± 4 fmol N ^6-MF-A/mg/min
- Rate of N6-MF-A formation [4]: 31.8 ± 0.8 fmol N ^6-MF-A/mg/min
- Rate of N6-MF-A formation (corr.) ([4]; corrected by actual SULT concentration in the cytosolic preparation): 24,400 fmol N ^6-MF-A/mg/min and 24,400 ± 600 fmol N ^6-MF-A/mg/min
- ratio of N6-MF-A formation, rSult1a1 vs rSult1b1 ([4]; corrected rates): ~71 fold
- ratio of N6-MF-A formation, rSult1a1 vs rSult1c1 ([4]; corrected rates): about 6 fold
- Rate of N6-MF-A formation ([5]; 0.1 mM FFA): <18 fmol N ^6-MF-A/mg/min
- Rate of N6-MF-A formation ([5]; 1 mM FFA): 34.8 ± 0.5 fmol N ^6-MF-A/mg/min
- Rate of N6-MF-A formation (corr.) [5, 7]: 2,480 ± 30 fmol N ^6-MF-A/mg/min
- Rate of N6-MF-A formation ([5]; 10 mM FFA): 150 ± 4 fmol N ^6-MF-A/mg/min
- Rate of N6-MF-A formation ([6]; 0.1 mM FFA): 73.5 ± 1.1 fmol N ^6-MF-A/mg/min
- Rate of N6-MF-A formation ([6]; 1 mM FFA): 575 ± 2 fmol N ^6-MF-A/mg/min
- Rate of N6-MF-A formation (corr.) [6, 7]: 57,500 fmol N ^6-MF-A/mg/min and 57,500 ± 200 fmol N ^6-MF-A/mg/min
- ratio of N6-MF-A formation rate, hSULT1A1 vs hSULT1A2, 1A3, 1B1, 1C3 and 2A1 ([6]; 1 mM FFA, corrected rates): 11- to 30 fold
- Rate of N6-MF-A formation ([6]; 10 mM FFA): 931 ± 5 fmol N ^6-MF-A/mg/min
